Experimental findings from US9512107B2, “Therapeutically active compositions and their methods of use” (Agios Pharmaceuticals, Inc., priority 2012, dated 2016) are described below.

Each structure is given as a SMILES string. Residue numbers refer to the chain shown, from its start. Bounds are passed on as bounds.

For experiment [1], the target named is T1, IDH2 R172K (Homo sapiens, UniProt P48735, R172K).
T1 sequence (P48735 40-452 R172K): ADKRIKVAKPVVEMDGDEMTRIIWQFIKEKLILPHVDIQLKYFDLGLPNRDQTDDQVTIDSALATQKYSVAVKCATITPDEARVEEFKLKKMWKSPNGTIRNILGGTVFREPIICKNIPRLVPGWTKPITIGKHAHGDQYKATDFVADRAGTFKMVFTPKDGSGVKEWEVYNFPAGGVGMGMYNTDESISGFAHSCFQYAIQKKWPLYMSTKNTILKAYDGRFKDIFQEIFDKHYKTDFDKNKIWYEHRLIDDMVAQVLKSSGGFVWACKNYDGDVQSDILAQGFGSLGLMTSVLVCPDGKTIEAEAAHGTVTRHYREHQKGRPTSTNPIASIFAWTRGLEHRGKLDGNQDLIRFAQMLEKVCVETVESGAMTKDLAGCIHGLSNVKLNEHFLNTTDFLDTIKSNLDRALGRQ
Put plainly: IDH2 R172K enzymatic assay (NADPH cofactor depletion, diaphorase/resazurin readout). The class given is biochemical. As to conditions: read-out: Enz R172K. Put shortly:
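Cofactor depletion format: enzyme + compound 1 h RT; add substrate mix (50 μM NADPH, 6.3 mM α-KG); react 1 h RT; quench with stop mix (36 μg/ml diaphorase, 60 μM resazurin); read resorufin fluorescence as residual NADPH.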
Background: Resazurin is reduced to fluorescent resorufin, in cell work by metabolically active cells.

Experiment [2] concerns U87MG pLVX-IDH2 R140Q-neo cells. Description: U87MG pLVX-IDH2 R140Q-neo cell based assay, 2-HG in media by LC-MS at 48 hours. As to conditions: for IC50: Homo sapiens, U-87 MG. The procedure, abridged:
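2-HG secreted into the medium was measured by LC-MS after 48 h of compound treatment (0.2% DMSO final) of U87MG pLVX-IDH2 R140Q-neo cells in DMEM/10% FBS. The same wells were assayed at 72 h by CellTiter-Glo luminescence for effects on growth.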

The target of experiment [3] is T2, IDH2 R140Q (Homo sapiens, UniProt P48735, R140Q).
T2 sequence (P48735 40-452 R140Q): T1 sequence (P48735 40-452 R172K) with R101Q, K133R
Description: IDH2 R140Q enzymatic assay (cofactor depletion, similar format). The format is biochemical. As to conditions: read-out: Enz R140Q.

For `CC(C)Nc1nc(Nc2ccnc(C(C)(C)O)c2)nc(-c2cccc(C(F)(F)F)n2)n1` [Compound 496, 2-{4-[4-Isopropylamino-6-(6-trifluoromethyl-pyridin-2-yl)-[1,3,5]triazin-2-ylamino]-pyridin-2-yl}-propan-2-ol], the IC50 was below 0.1 µM in experiment [1], below 0.1 µM in experiment [2] and 0.1 to 1 µM in experiment [3].
For `CC1(Nc2nc(Nc3ccnc(C(F)(F)F)c3)nc(-c3cccc(C(F)(F)F)n3)n2)CC1` [Compound 533, N-(1-Methyl-cyclopropyl)-6-(6-trifluoromethyl-pyridin-2-yl)-N′-(2-trifluoromethyl-pyridin-4-yl)-[1,3,5]triazine-2,4-diamine], the IC50 in experiment [1] was below 0.1 µM; in experiment [2], below 0.1 µM; in experiment [3] it was 0.1 to 1 µM.
For the compound `CCC(C)Nc1nc(Nc2ccncc2)nc(-c2ccccc2)n1` (stereo not drawn) [Compound 186, N^2-sec-butyl-6-phenyl-N^4-(pyridin-4-yl)-1,3,5-triazine-2,4-diamine], the IC50 in experiment [1] is 0.1 to 1 µM; in experiment [2], below 0.1 µM; in experiment [3], below 0.1 µM.
Take `COc1ccccc1-c1nc(Nc2ccccc2)nc(NC(C)C)n1` [Compound 120]: the IC50 in experiment [1] is 0.1 to 1 µM; in experiment [2], below 0.1 µM; in experiment [3] it was below 0.1 µM.
Regarding `CC(C)Nc1nc(Nc2ccncc2)nc(-c2cccc(F)c2)n1` [Compound 184, 6-(3-fluorophenyl)-N^2-isopropyl-N^4-(pyridin-4-yl)-1,3,5-triazine-2,4-diamine], the IC50 is 1 to 10 µM in experiment [1], 0.1 to 1 µM in experiment [2] and below 0.1 µM in experiment [3].
Turning to `CC(C)Nc1nc(Nc2ccnc(C(F)(F)F)c2)nc(-c2nccc(C(F)(F)F)n2)n1` [Compound 522, N2-isopropyl-N4-(2-(trifluoromethyl)pyridin-4-yl)-6-(4-(trifluoromethyl)pyrimidin-2-yl)-1,3,5-triazine-2,4-diamine], the values for the IC50 in experiment [1], in experiment [2] and in experiment [3] were 0.1 to 1 µM, below 0.1 µM and 0.1 to 1 µM, respectively.
For `CC(C)Nc1nc(Nc2cc(F)cc(F)c2)nc(-c2ncccc2F)n1` [Compound 459, N-(3,5-Difluoro-phenyl)-6-(3-fluoro-pyridin-2-yl)-N′-isopropyl-[1,3,5]triazine-2,4-diamine], the IC50 in experiment [1], in experiment [2] and in experiment [3] was below 0.1 µM each time.
As to `CC(C)Nc1nc(Nc2cccc(CO)c2)nc(-c2ccccc2)n1` [Compound 150], the IC50 in experiment [1] is 1 to 10 µM; in experiment [2], 0.1 to 1 µM; in experiment [3] it was 0.1 to 1 µM.
Consider `CC(C)Nc1nc(Nc2cc(Cl)cc(S(C)(=O)=O)c2)nc(-c2cccc(C(C)(F)F)n2)n1` [Compound 614, N2-(3-chloro-5-(methylsulfonyl)phenyl)-6-(6-(1,1-difluoroethyl)pyridin-2-yl)-N4-isopropyl-1,3,5-triazine-2,4-diamine], for which the IC50 in experiment [1] is below 0.1 µM; in experiment [2] it was below 0.1 µM; in experiment [3], 0.1 to 1 µM.
As to `CC(O)CNc1nc(Nc2ccccc2)nc(-c2ccccc2)n1` (stereo not drawn) [Compound 240, 1-(4-phenyl-6-(phenylamino)-1,3,5-triazin-2-ylamino)propan-2-ol], the IC50 in experiment [1] is 1 to 10 µM; in experiment [2] it was 0.1 to 1 µM; in experiment [3] it was below 0.1 µM.
On the same counts, the results for `CC(C)(C)OC(=O)Nc1nc(Nc2ccccc2)nc(-c2ccccc2)n1` [Compound 416, Tert-butyl 4-phenyl-6-(phenylamino)-1,3,5-triazin-2-ylcarbamate] are 0.1 to 1 µM, below 0.1 µM and below 0.1 µM.
For `CC(Nc1nc(Nc2ccnc(C(F)(F)F)c2)nc(-c2cccc(N)n2)n1)C(F)(F)F` (stereo not drawn) [Compound 694, 6-(6-aminopyridin-2-yl)-N2-(2-(trifluoromethyl)pyridin-4-yl)-N4-(1,1,1-trifluoropropan-2-yl)-1,3,5-triazine-2,4-diamine] the same measures were below 0.1 µM, below 0.1 µM and 0.1 to 1 µM.
Consider `CC(C)Nc1nc(Nc2ccccn2)nc(-c2ccccc2)n1` [Compound 155], for which the IC50 was above 10 µM in experiment [1] and 0.1 to 1 µM in experiment [3]. For the same compound, the “Cell R140Q” value in experiment [2] was “No Fit”.
As to `CC(C)COC(=O)Nc1nc(Nc2ccccc2)nc(-c2ccccc2)n1` [Compound 179, Isobutyl 4-phenyl-6-(phenyl-amino)-1,3,5-triazin-2-ylcarbamate], the IC50 in experiment [1], in experiment [2] and in experiment [3] was below 0.1 µM each time.
As to `CC(=O)Nc1cccc(-c2nc(Nc3ccnc(C(F)(F)F)c3)nc(NC(C)C)n2)n1` [Compound 697, N-(6-(4-(isopropylamino)-6-(2-(trifluoromethyl)pyridin-4-ylamino)-1,3,5-triazin-2-yl)pyridin-2-yl)acetamide], the IC50 in experiment [1] lay within 1 to 10 µM; in experiment [2], 0.1 to 1 µM; in experiment [3] it was 0.1 to 1 µM.
Regarding `FC1(F)CCC(Nc2nc(Nc3ccncc3)nc(-c3ccccc3)n2)CC1` [Compound 254, N^2-(4,4-difluorocyclohexyl)-6-phenyl-N^4-(pyridin-4-yl)-1,3,5-triazine-2,4-diamine], the IC50 in experiment [1] was 0.1 to 1 µM; in experiment [2], 0.1 to 1 µM; in experiment [3] it was below 0.1 µM.
Turning to `CC(O)C(C)Nc1nc(Nc2ccnc(C(F)(F)F)c2)nc(-c2cccc(C(F)(F)F)n2)n1` (stereo not drawn) [Compound 548, 3-[4-(6-Trifluoromethyl-pyridin-2-yl)-6-(2-trifluoromethyl-pyridin-4-ylamino)-[1,3,5]triazin-2-ylamino]-butan-2-ol], the figures for the IC50 in experiment [1], in experiment [2] and in experiment [3] were 0.1 to 1 µM, below 0.1 µM and 0.1 to 1 µM, respectively.
Turning to `COCc1cccc(Nc2nc(NC(C)C)nc(-c3ccccc3)n2)c1` [Compound 195, N^2-isopropyl-N^4-(3-(methoxymethyl)phenyl)-6-phenyl-1,3,5-triazine-2,4-diamine], the results for the IC50 in experiment [1], in experiment [2] and in experiment [3] were 0.1 to 1 µM, below 0.1 µM and below 0.1 µM, respectively.
As to `CC(C)Nc1nc(Nc2cccc(S(C)(=O)=O)c2)nc(-c2nc(F)ccc2F)n1` [Compound 454], the figures for the IC50 in experiment [1], in experiment [2] and in experiment [3] were 1 to 10 µM, 0.1 to 1 µM and 0.1 to 1 µM, respectively.
With `CC#Cc1cccc(-c2nc(Nc3cc(F)cc(F)c3)nc(NC(C)C)n2)n1` [Compound 463, N-(3,5-Difluoro-phenyl)-N′-isopropyl-6-(6-prop-1-ynyl-pyridin-2-yl)-[1,3,5]triazine-2,4-diamine], the IC50 in experiment [1] was below 0.1 µM; in experiment [2], below 0.1 µM; in experiment [3], 0.1 to 1 µM.
On to `OCCNc1nc(Nc2ccccc2)nc(-c2ccccc2)n1` [Compound 238, 2-(4-phenyl-6-(phenylamino)-1,3,5-triazin-2-ylamino)ethanol], for which the IC50 was 1 to 10 µM in experiment [1], 0.1 to 1 µM in experiment [2] and 0.1 to 1 µM in experiment [3].
Take `CC(C)Nc1nc(Nc2cc(F)cc(F)c2)nc(-c2cc(O)cc(O)c2)n1` [Compound 642, 5-(4-((3,5-difluorophenyl)amino)-6-(isopropylamino)-1,3,5-triazin-2-yl)benzene-1,3-diol]: the values for the IC50 in experiment [1], in experiment [2] and in experiment [3] were below 0.1 µM, below 0.1 µM and 0.1 to 1 µM, respectively.
Take `CC(C)Nc1nc(Nc2ccnc(C(F)(F)F)c2)nc(-c2cccc(C(O)C(F)(F)F)c2)n1` (stereo not drawn) [Compound 652, 2,2,2-trifluoro-1-(3-(4-(isopropylamino)-6-((2-(trifluoromethyl)pyridin-4-yl)amino)-1,3,5-triazin-2-yl)phenyl)ethanol]: the IC50 in experiment [1], in experiment [2] and in experiment [3] was 0.1 to 1 µM throughout.
Take `CC(C)Nc1nc(Nc2ccnc(C3CC3)c2)nc(-c2cccc(C(F)(F)F)n2)n1` [Compound 563, N-(2-Cyclopropyl-pyridin-4-yl)-N′-isopropyl-6-(6-trifluoromethyl-pyridin-2-yl)-[1,3,5]triazine-2,4-diamine]: the results for the IC50 in experiment [1], in experiment [2] and in experiment [3] were below 0.1 µM, below 0.1 µM and 0.1 to 1 µM, respectively.
`CC(C)Nc1nc(Nc2ccnc(C(F)(F)F)c2)nc(-c2cccc(C(F)(F)F)n2)n1` [Compound 335, N^2-isopropyl-6-(6-(trifluoromethyl)pyridin-2-yl)-N^4-(2-(trifluoromethyl)pyridin-4-yl)-1,3,5-triazine-2,4-diamine]: the values for the IC50 in experiment [1], in experiment [2] and in experiment [3] were below 0.1 µM, below 0.1 µM and 0.1 to 1 µM, respectively.
